Patent US3931299A, “9β-Formyl prostaglandin derivatives” (American Home Products Corporation, priority 1974, dated 1976)

What was measured:
[1] = hypotension in the anesthetized dog by the intravenous route; format: in vivo
Protocol: In the use of the compounds of the invention to produce hypotensive effects in warm-blooded animals, administration by the injectable route is preferred, preferably the intravenous route.
Thus in the anesthetized dog by the intravenous route the dose to produce hypotension is from about 1 μg/kg. to about 200 μg/kg. and preferably from about 10 μg/kg. to about 100 μg/kg.
Using this procedure the following results were obtained.

[2] = test system: bronchoconstricting effects of a standard dose of acetylcholine; assay: bronchodilation in the guinea pig by aerosol inhalation (method of Rosenthale et al.); format: in vivo
Source text: In using the compounds of the invention to produce bronchodilating effects in warm-blooded animals, they may be administered in a variety of dosage forms: oral, injectable, and aerosol inhalation. Aerosol inhalation is a preferred method because of its rapid onset of action, great potency, and specificity of action. The particular dosage to obtain the bronchodilating effect will vary with the particular compound employed, the particular animal involved, and the degree of bronchodilation desired. In the guinea pig, by aerosol inhalation, the dose to produce bronchodilation is from about 0.15 micrograms to about 100 micrograms, and preferably from about 0.15 to about 50 micrograms. The bronchodilation produced upon aerosol inhalation can be observed by the method of Rosenthale et al., J. Pharmacol. Exp. Ther., 178, 541 (1971).
Using this procedure, the following results were obtained.

Structure (SMILES)	Δb.p. ([1]; dose 10 μg/kg.)	Percent inhibition of the bronchoconstricting effects of a standard dose of acetylcholine ([2]; dose 1.5 μg)	Δb.p. ([1]; dose 100 μg/kg.)	Percent inhibition of the bronchoconstricting effects of a standard dose of acetylcholine ([2]; dose 0.15 μg)
CCCCC[C@H](O)/C=C/[C@H]1CC[C@@H](C=O)[C@@H]1C/C=C\CCCC(=O)O [7-[5β-Formyl-2β-((3S)-3-Hydroxy-Trans-1-Octenyl)-1α-Cyclopentyl]-Cis-5-Heptenoic Acid]	-17 mm. Hg	55%		
C=C1CC[C@H](/C=C/[C@@H](O)CCCCC)[C@H]1C/C=C\CCCC(=O)O [7-[2β-((3S)-3-Hydroxy-Trans-1-Octenyl)-5-Methylene-1α-Cyclopentyl]-Cis-5-Heptenoic Acid]		46%		
C=C1CC[C@H](/C=C/[C@@H](O)CCCCC)[C@H]1CCCCCCC(=O)O [2β-[(3S)-3-Hydroxy-Trans-1-Octenyl]-5-Methylene-1α-Cyclopentaneheptanoic Acid]			-32 mm. Hg	
CCCCC[C@H](O)/C=C/[C@H]1CC[C@@H](CO)[C@@H]1C/C=C\CCCC(=O)O [7-[5β-Hydroxymethyl-2β-((3S)-3-Hydroxy-Trans-1-Octenyl)-1α-Cyclopentyl]-Cis-5-Heptenoic Acid]			-27 mm. Hg	
CCCCC[C@H](O)/C=C/[C@H]1CC[C@@H](C=O)[C@@H]1CCCCCCC(=O)O [5β-Formyl-2β-[(3S)-3-Hydroxy-Trans-1-Octenyl]-1α-Cyclopentane Heptanoic Acid]			-27 mm. Hg	36%
